Laboratory results published in PubChem BioAssay (NCI).
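In this assay, cells in 96-well plates receive the compound at five concentrations for 48 hours. Endpoints are linearly interpolated between the surrounding concentrations. TGI: total growth inhibition.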

Key:
Assay in all cases: NCI anticancer screen, dose series, 48 h
[1] = system: SF-268 CNS
[2] = system: NCI/ADR-RES ovarian
[3] = system: UACC-62 melanoma
[4] = system: U251 CNS
[5] = system: SK-MEL-28 melanoma
[6] = system: NCI-H23 lung
[7] = system: 786-0 renal
[8] = system: IGROV1 ovarian
[9] = system: A498 renal
[10] = system: MOLT-4 leukemia

SMILES | TGI [1] | TGI [2] | TGI [3] | TGI [4] | TGI [5] | TGI [6] | TGI [7] | TGI [8] | TGI [9] | TGI [10]
Cc1ccc(OCC2OC(n3cnc4c(N(C)C)nc(Br)nc43)CC2Oc2ccc(C)cc2)cc1 (centres undefined) | > 100 µM | > 100 µM | > 100 µM | > 100 µM | > 100 µM | > 100 µM | > 100 µM | > 100 µM | > 100 µM | –
C=C1C(=O)OC2(C)C3CCC(C3)C12 (centres undefined) | > 100 µM | – | > 100 µM | > 100 µM | > 100 µM | > 100 µM | > 100 µM | > 100 µM | – | > 100 µM
O=C(CN1CCN(Cc2ccccc2)CC1)N1CCCn2c1nc1ccccc1c2=O | > 100 µM | > 100 µM | > 100 µM | > 100 µM | – | > 100 µM | > 100 µM | > 100 µM | > 100 µM | > 100 µM
O=c1/c(=C\c2ccccc2)sc2n1C(c1ccccc1)C1(O)CCCCC1N=2 (centres undefined) | > 100 µM | – | > 100 µM | > 100 µM | > 100 µM | > 100 µM | > 100 µM | > 100 µM | > 100 µM | > 100 µM
c1ccc(-c2sc(-c3cccs3)cc2Cc2cccs2)cc1 | > 10 µM | > 10 µM | > 10 µM | – | > 10 µM | > 10 µM | > 10 µM | > 10 µM | – | > 10 µM
CN1C(=S)C(c2ccccc2)Sc2ccccc21 (centres undefined) | > 100 µM | > 100 µM | > 100 µM | > 100 µM | > 100 µM | > 100 µM | > 100 µM | > 100 µM | – | > 100 µM
CC(=O)N1CCc2c([nH]c3ccc(Br)cc23)C1c1ccccc1 (centres undefined) | > 10 µM | > 10 µM | > 10 µM | > 10 µM | > 10 µM | – | > 10 µM | > 10 µM | > 10 µM | > 10 µM
CCCCc1c(C(=O)OC(C)(C)C)cc(C#Cc2cc(C(=O)OC(C)(C)C)c(CCCC)c(C(=O)OC(C)(C)C)c2)cc1C(=O)OC(C)(C)C | > 100 µM | > 100 µM | > 100 µM | > 100 µM | > 100 µM | > 100 µM | > 100 µM | > 100 µM | > 100 µM | –
O=C(O)CCCCCOc1cccnc1/C=N/NC1=NCCN1 | > 100 µM | – | > 100 µM | > 100 µM | > 100 µM | > 100 µM | > 100 µM | > 100 µM | > 100 µM | > 100 µM
CCC1C(c2cccc(OC)c2O)c2cc3c(cc2OC1N1CCCC1)OCO3 (centres undefined) | 58.9 µM | 54.7 µM | 65.9 µM | – | 43.4 µM | > 100 µM | 41.2 µM | 45.3 µM | – | 45 µM
CCCCCC(=O)c1ccc2[nH]c3c(C)cc([N+](=O)[O-])c(C)c3c2c1 | > 100 µM | – | – | – | > 100 µM | > 100 µM | > 100 µM | – | – | > 100 µM
Cc1ccnc2[nH]c(-c3cccc(Cl)c3)cc(=O)c12 | > 100 µM | > 100 µM | > 100 µM | – | > 100 µM | > 100 µM | > 100 µM | > 100 µM | > 100 µM | > 50 µM
O=C(Nc1cccc(C(F)(F)F)c1)O/N=C(/Cl)CCl | > 100 µM | > 100 µM | – | > 100 µM | > 100 µM | > 100 µM | > 100 µM | > 100 µM | > 100 µM | 79.6 µM
C1CSCCCSCCSCCCSC1 | > 100 µM | – | > 100 µM | > 100 µM | > 100 µM | > 100 µM | > 100 µM | > 100 µM | > 100 µM | > 100 µM
COc1cc(C2SCC(=O)N2c2ccc(-n3c(-c4ccccc4)nc4ccccc4c3=O)cc2)ccc1O (centres undefined) | > 100 µM | > 100 µM | > 100 µM | > 100 µM | > 100 µM | > 100 µM | > 100 µM | – | > 100 µM | > 100 µM
O=c1c(SSc2coc3cc(F)ccc3c2=O)coc2cc(F)ccc12 | > 100 µM | 78.8 µM | 36.1 µM | 79 µM | 30.4 µM | > 100 µM | 21.6 µM | 20.2 µM | – | 69.6 µM
COc1ccccc1-c1cc(=O)c2ccccc2[nH]1 | > 100 µM | – | > 100 µM | > 100 µM | > 100 µM | > 100 µM | > 100 µM | > 100 µM | – | > 100 µM
CN(C)c1nc(NC23CC4CC(CC(C4)C2)C3)nc(N(C)C)n1 | > 100 µM | > 100 µM | > 76.1 µM | > 55.3 µM | > 69.9 µM | > 100 µM | > 89.5 µM | – | > 100 µM | > 57.3 µM
